Earlier results, collected in patent US20240316057A1 (priority 2021, published 2024).

Experiments:
[1] = as known to the skilled person

Compound: Cn1cnc2c1c(=O)[nH]c(=O)n2C [Theobromine, 3,7-dimethylxanthine]
- solubility in water: very slightly water-soluble

Compound: Cn1c(=O)c2c(ncn2C)n(C)c1=O [Caffeine, 1,3,7-trimethylxanthine]
- efficacious plasma concentration range [1]: 5 to 20 µM
